Tested on: Caucasian patients with schizophrenia (CATIE)
Assay: Genetic association (linear regression, additive model) of SNP alleles with MMRM-modelled change in PANSS Total Score under antipsychotic treatment, CATIE trial
Format: in vivo, human

Question: What does the source list for `OCCOCCN1CCN(C2=Nc3ccccc3Sc3ccccc32)CC1` [Quetiapine, quetiapine]?
Answer: Beta (PANSS) (AKAP9 rs35759833 allele C, P 4.46E−02): −4.62 PANSS; Beta (PANSS) (ARSB rs25414 allele C, P 2.37E−03): −9.37 PANSS; Beta (PANSS) (ATP2B2 rs11712897 allele C, P 2.77E−02): −3.54 PANSS; Beta (PANSS) (C13orf35 rs4907727 allele C, P 2.16E−02): −3.58 PANSS; Beta (PANSS) (C15orf41 rs8027206 allele A, P 2.90E−02): −3.40 PANSS; Beta (PANSS) (CA10 rs7210687 allele C, P 2.52E−02): −3.24 PANSS; Beta (PANSS) (CA10 rs17607202 allele C, P 3.87E−02): −3.10 PANSS; Beta (PANSS) (CACNA2D3 rs9861155 allele A, P 2.07E−02): −4.28 PANSS; Beta (PANSS) (CCBE1 rs12606241 allele G, P 3.38E−02): −4.12 PANSS; Beta (PANSS) (CDH13 rs3935908 allele G, P 4.47E−02): −2.89 PANSS; Beta (PANSS) (CDH13 rs8048616 allele C, P 2.03E−02): −3.49 PANSS; Beta (PANSS) (CERK rs78424 allele A, P 2.86E−02): −3.60 PANSS; Beta (PANSS) (CHRM3 rs4659552 allele A, P 3.50E−02): −3.02 PANSS; Beta (PANSS) (CLSTN2 rs10513102 allele C, P 4.28E−02): −4.05 PANSS; Beta (PANSS) (CNTN6 rs7646412 allele A, P 2.28E−02): −4.64 PANSS; Beta (PANSS) (CNTNAP2 rs10240221 allele A, P 3.63E−02): −3.22 PANSS; Beta (PANSS) (COL22A1 rs4311658 allele G, P 2.37E−03): −5.04 PANSS; Beta (PANSS) (COL22A1 rs4442151 allele C, P 2.37E−03): −5.04 PANSS; Beta (PANSS) (CPLX2 rs2243404 allele C, P 2.25E−02): −4.30 PANSS; Beta (PANSS) (CSMD1 rs2616996 allele G, P 4.49E−02): −3.44 PANSS; Beta (PANSS) (CTNNA2 rs10201249 allele A, P 2.33E−02): −4.77 PANSS; Beta (PANSS) (CTNNA2 rs10520244 allele C, P 2.12E−02): −6.07 PANSS; Beta (PANSS) (CTNNA2 rs17018593 allele A, P 2.95E−02): −4.25 PANSS; Beta (PANSS) (DENND4C rs2666797 allele C, P 2.72E−02): −3.79 PANSS; Beta (PANSS) (DGKD rs838717 allele A, P 2.74E−02): −3.38 PANSS; Beta (PANSS) (DLC1 rs12677920 allele A, P 3.27E−02): −3.35 PANSS; Beta (PANSS) (DLG2 rs7101982 allele C, P 4.47E−02): −2.93 PANSS; Beta (PANSS) (DYNC1I1 rs17638044 allele C, P 2.39E−03): −8.72 PANSS; Beta (PANSS) (ERG rs10854385 allele A, P 3.76E−02): −4.00 PANSS; Beta (PANSS) (ESRRG rs9441544 allele C, P 2.40E−02): −4.04 PANSS; Beta (PANSS) (ETV1 rs41505 allele C, P 2.62E−03): −4.08 PANSS; Beta (PANSS) (EXOC2 rs1747599 allele G, P 4.44E−02): −3.71 PANSS; Beta (PANSS) (EXOC2 rs17135234 allele A, P 3.55E−02): −4.93 PANSS; Beta (PANSS) (FBXL2 rs6772365 allele C, P 4.07E−02): −3.45 PANSS; Beta (PANSS) (FHIT rs12636662 allele A, P 2.18E−03): −4.62 PANSS; Beta (PANSS) (FLJ38109 rs11167681 allele C, P 3.82E−02): −3.35 PANSS; Beta (PANSS) (FMN2 rs1020709 allele C, P 3.77E−02): −3.38 PANSS; Beta (PANSS) (FMNL2 rs1155779 allele C, P 2.20E−02): −3.41 PANSS; Beta (PANSS) (FOXP1 rs831440 allele C, P 3.37E−02): −3.67 PANSS; Beta (PANSS) (GALNTL4 rs4909979 allele C, P 2.49E−02): −5.30 PANSS; Beta (PANSS) (GNG2 rs1343870 allele G, P 4.37E−02): −3.12 PANSS; Beta (PANSS) (GPR116 rs9395218 allele C, P 3.77E−02): −4.73 PANSS; Beta (PANSS) (GRID2 rs1433667 allele C, P 2.84E−03): −4.87 PANSS; Beta (PANSS) (GRID2 rs1836115 allele A, P 3.01E−02): −3.53 PANSS; Beta (PANSS) (GRID2 rs13103135 allele C, P 4.20E−02): −3.66 PANSS; Beta (PANSS) (GRM8 rs17865066 allele A, P 2.61E−02): −10.79 PANSS; Beta (PANSS) (GRM8 rs17865434 allele C, P 2.61E−02): −10.79 PANSS; Beta (PANSS) (HAAO rs3755540 allele C, P 2.01E−02): −3.79 PANSS; Beta (PANSS) (INMT-FAM188B;FAM188B rs10230286 allele A, P 2.09E−02): −3.51 PANSS; Beta (PANSS) (INMT-FAM188B;FAM188B rs11972565 allele A, P 2.70E−02): −3.53 PANSS

Reference: patent US20160122821A1, “GENETIC MARKERS OF ANTIPSYCHOTIC RESPONSE” (SUREGENE, LLC, priority 2013, published 2016)
